Measurements reported in article PMC8402917 (Viruses, 2021).

Target: T1, SARS-CoV-2 3CLpro (3CL protease, main protease) (Severe acute respiratory syndrome coronavirus 2, UniProt P0DTD1)
T1 construct: gene rep
Test: biochemical

CC1=C(/C=C/C(C)=C/C=C/C(C)=C/C(=O)O)C(C)(C)CCC1 [all-trans retinoic acid]
IC50: 24.7 ± 1.65 µM
